Assay results published in PMC6271273, “Chemo-Enzymatic Synthesis of Silybin and 2,3-Dehydrosilybin Dimers” (Molecules, 2014).
Marks after values point to notes of the source that are not given here.

Key:
[1] = Square wave voltammetry (in situ / ex situ) at pyrolytic graphite electrode; assay type: physicochemical; details: SWV, vs. Ag/AgCl/3 M KCl, pH 7.4, n = 3; for Oxidation potential Ep1: ascribed to oxidation of C-20 OH; for Oxidation potential Ep2: oxidation of resorcinol moiety (ring A)
Method: The monomeric flavonolignans and their dimers were analyzed using in situ voltammetry with the working electrode (PGE: pyrolytic graphite electrode) dipped in the supporting electrolyte containing the analytes and/or ex situ voltammetric analysis (adsorptive transfer, AdT technique). For this purpose, the PGE was first dipped into a 5 µL aliquot of the studied sample. After an accumulation period (30 s), the electrode was washed with deionized water and placed in an electrochemical cell containing pure supporting electrolyte. Square-wave voltammetry (SWV) and cyclic voltammetry (CV) were performed at room temperature with a µAutolab III analyzer (EcoChemie, Utrecht, The Netherlands) in a three-electrode setup (Ag/AgCl 3M KCl electrode as a reference and a platinum wire as the auxiliary electrode). SWV parameters: frequency: 200 Hz, from 0 V to +1.5 V, concentration of tested compounds (50 µM), supporting electrolyte: Britton-Robinson buffer, pH 7.4. The flavonolignans analyzed were dissolved in methanol as a stock solution of 1 mg mL^−1 (stored in a fridge in the dark), and diluted with the supporting electrolyte and/or 0.2 M acetate buffer (pH 5) for in situ and/or ex situ voltammetry. Ex situ a.c. voltammetry (out-of-phase) was carried out with a hanging mercury drop electrode (HMDE) according to the previously published paper. In this case, the flavonolignans (50 µM) were adsorbed from 0.2 M acetate buffer (pH 5) for 30 s. For current responses and potentials (Ep), the standard deviations (S.D.) were less than ±3.55% and ±3 mV for all experiments, respectively.

[2] = DPPH radical scavenging assay; assay type: biochemical; details: 33 µM test compound, n = 4, absorbance at 517 nm after 30 min
Method: Antiradical activity was evaluated spectrophotometrically as the ability of the tested substances to reduce the 1,1-diphenyl-2-picrylhydrazyl (DPPH) radical as described previously with minor modifications. Briefly, a solution of the tested substance (10 µL, final concentration 0–540 µM) were mixed with a freshly prepared methanolic DPPH solution (290 µL, final concentration 20 µM) in a microtiter plate well. After 30 min, absorbance at 517 nm was measured, percentages of inhibition were calculated using the negative control and for selected compounds the IC50 values were obtained from the inhibition curves.

SMILES | Oxidation potential Ep1 [1] [V] | Oxidation potential Ep2 [1] [V] | DPPH [% of inhibition] [2]
COc1cc([C@H]2Oc3cc([C@H]4Oc5cc(OCc6ccc(COc7cc(O)c8c(c7)O[C@H](c7ccc9c(c7)O[C@H](c7ccc(O)c(OC)c7)[C@@H](CO)O9)[C@@H](O)C8=O)cc6)cc(O)c5C(=O)[C@@H]4O)ccc3O[C@@H]2CO)ccc1O [Compound 8, (2R,2'R,3R,3'R)-7,7'-((1,4-Phenylenebis(methylene))bis(oxy))bis(3,5-dihydroxy-2-((2R,3R)-3-(4-hydroxy-3-methoxyphenyl)-2-(hydroxymethyl)-2,3-dihydrobenzo[b][1,4]dioxin-6-yl)chroman-4-one)] | 0.56 | 0.81 | 8.5 ± 3.7 ^a %
COc1cc([C@@H]2Oc3cc([C@H]4Oc5cc(OCc6ccc(COc7cc(O)c8c(c7)O[C@H](c7ccc9c(c7)O[C@@H](c7ccc(O)c(OC)c7)[C@H](CO)O9)[C@@H](O)C8=O)cc6)cc(O)c5C(=O)[C@@H]4O)ccc3O[C@H]2CO)ccc1O [Compound 9, (2R,2'R,3R,3'R)-7,7'-((1,4-Phenylenebis(methylene))bis(oxy))bis(3,5-dihydroxy-2-((2S,3S)-3-(4-hydroxy-3-methoxyphenyl)-2-(hydroxymethyl)-2,3-dihydrobenzo[b][1,4]dioxin-6-yl)chroman-4-one)] | 0.57 | 0.83 | 8.9 ± 4.0 ^a %
COc1cc(C2Oc3cc([C@H]4Oc5cc(OCc6ccc(COc7cc(O)c8c(c7)O[C@H](c7ccc9c(c7)OC(c7ccc(O)c(OC)c7)C(CO)O9)[C@@H](O)C8=O)cc6)cc(O)c5C(=O)[C@@H]4O)ccc3OC2CO)ccc1O (stereo partly drawn) [Compound 10, (2R,2'R,3R,3'R)-7,7'-((1,4-Phenylenebis(methylene))bis(oxy))bis(3,5-dihydroxy-2-(3-(4-hydroxy-3-methoxyphenyl)-2-(hydroxymethyl)-2,3-dihydrobenzo[b][1,4]dioxin-6-yl)chroman-4-one)] | 0.56 | 0.80 | 8.1 ± 3.4 ^a %
COc1cc(C2Oc3cc([C@H]4Oc5cc(OCc6cccc(COc7cc(O)c8c(c7)O[C@H](c7ccc9c(c7)OC(c7ccc(O)c(OC)c7)C(CO)O9)[C@@H](O)C8=O)c6)cc(O)c5C(=O)[C@@H]4O)ccc3OC2CO)ccc1O (stereo partly drawn) [Compound 11, (2R,2'R,3R,3'R)-7,7'-((1,3-Phenylenebis(methylene))bis(oxy))bis(3,5-dihydroxy-2-(3-(4-hydroxy-3-methoxyphenyl)-2-(hydroxymethyl)-2,3-dihydrobenzo[b][1,4]dioxin-6-yl)chroman-4-one)] | 0.52 | 0.87 | 10.7 ± 3.1 ^a %
